Key:
Assay in all cases: Bliss interaction score (quartile over a dose matrix) (fitness difference); higher = more antagonism (negative = synergy)
S. pneumoniae D39V = tested on: S. pneumoniae D39V
Procedure, shortened: (§1)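 The Bliss score subtracts expected fitness, the product of the single-drug fitness values, from observed fitness. Fitness is plate-normalised OD595 at entry into stationary phase, relative to the robust no-drug mean and capped at 1, with single-drug fitness inferred from combinations. Summaries are quartiles over technical, biological and donor/recipient replicates.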

S. aureus Newman = tested on: S. aureus Newman
Procedure, shortened: as §1

B. subtilis 168 = tested on: B. subtilis 168
Procedure, shortened: as §1

S. aureus DSM 20231 = tested on: S. aureus DSM 20231
Procedure, shortened: as §1
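Also: first quartile when negative (synergy) and third quartile when positive (antagonism).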

Compound | Bliss interaction score (S. pneumoniae D39V) | Bliss interaction score (S. aureus Newman) | Bliss interaction score (B. subtilis 168) | Bliss interaction score (S. aureus DSM 20231) | Bliss interaction score (S. pneumoniae D39V; main component drawn) | Bliss interaction score (S. aureus Newman; main component drawn) | Bliss interaction score (B. subtilis 168; main component drawn) | Bliss interaction score (S. aureus DSM 20231; main component drawn)
CN[C@H](CC(C)C)C(=O)N[C@H]1C(=O)N[C@@H](CC(N)=O)C(=O)N[C@H]2C(=O)N[C@H]3C(=O)N[C@H](C(=O)N[C@H](C(=O)O)c4cc(O)cc(O)c4-c4cc3ccc4O)[C@H](O[C@H]3C[C@](C)(N)[C@@H](O)[C@H](C)O3)c3ccc(c(Cl)c3)Oc3cc2cc(c3O[C@@H]2O[C@H](CO)[C@@H](O)[C@H](O)[C@H]2O[C@H]2C[C@](C)(NCc3ccc(-c4ccc(Cl)cc4)cc3)[C@@H](O)[C@H](C)O2)Oc2ccc(cc2Cl)[C@H]1O [Oritavancin] + CCN(CC)CCOC(=O)c1ccc(N)cc1 [Procaine] | -0.0615 | -0.0513 | -0.0177 | -0.0785 | – | – | – | –
CC[C@H](C)[C@H](N)C1=N[C@H](C(=O)N[C@@H](CC(C)C)C(=O)N[C@H](CCC(=O)O)C(=O)N[C@H](C(=O)N[C@H]2CCCCNC(=O)[C@H](CC(N)=O)NC(=O)[C@@H](CC(=O)O)NC(=O)[C@H](Cc3cnc[nH]3)NC(=O)[C@@H](Cc3ccccc3)NC(=O)[C@H]([C@@H](C)CC)NC(=O)[C@@H](CCCN)NC2=O)[C@@H](C)CC)CS1 [Bacitracin] + Oc1cc(Cl)ccc1Oc1ccc(Cl)cc1Cl [Triclosan] | – | – | – | – | 0.056 | -0.0148 | -0.136 | 0.0303
CC[C@H](C)[C@H](N)C1=N[C@H](C(=O)N[C@@H](CC(C)C)C(=O)N[C@H](CCC(=O)O)C(=O)N[C@H](C(=O)N[C@H]2CCCCNC(=O)[C@H](CC(N)=O)NC(=O)[C@@H](CC(=O)O)NC(=O)[C@H](Cc3cnc[nH]3)NC(=O)[C@@H](Cc3ccccc3)NC(=O)[C@H]([C@@H](C)CC)NC(=O)[C@@H](CCCN)NC2=O)[C@@H](C)CC)CS1 [Bacitracin] + CO[C@@]12[C@H](COC(N)=O)C3=C(C(=O)C(C)=C(N)C3=O)N1C[C@@H]1N[C@@H]12 [MitomycinC] | – | – | – | – | -0.0853 | -0.0961 | -0.0673 | -0.0743
CN[C@H](CC(C)C)C(=O)N[C@H]1C(=O)N[C@@H](CC(N)=O)C(=O)N[C@H]2C(=O)N[C@H]3C(=O)N[C@H](C(=O)N[C@H](C(=O)O)c4cc(O)cc(O)c4-c4cc3ccc4O)[C@H](O[C@H]3C[C@](C)(N)[C@@H](O)[C@H](C)O3)c3ccc(c(Cl)c3)Oc3cc2cc(c3O[C@@H]2O[C@H](CO)[C@@H](O)[C@H](O)[C@H]2O[C@H]2C[C@](C)(NCc3ccc(-c4ccc(Cl)cc4)cc3)[C@@H](O)[C@H](C)O2)Oc2ccc(cc2Cl)[C@H]1O [Oritavancin] + CCCCCCCCCC(=O)N[C@@H]1[C@H]([C@@H]([C@H](O[C@H]1OC2=C3C=C4C=C2OC5=C(C=C(C=C5)[C@H]([C@H]6C(=O)N[C@@H](C7=C(C(=CC(=C7)O)OC8[C@H]([C@H]([C@@H]([C@H](O8)CO)O)O)O)C9=C(C=CC(=C9)[C@H](C(=O)N6)NC(=O)[C@@H]4NC(=O)[C@@H]1C2=CC(=CC(=C2)OC2=C(C=CC(=C2)[C@H](C(=O)N[C@H](CC2=CC(=C(O3)C=C2)Cl)C(=O)N1)N)O)O)O)C(=O)O)O[C@H]1[C@@H]([C@H]([C@@H]([C@H](O1)CO)O)O)NC(=O)C)Cl)CO)O)O [Teicoplanin] | – | – | – | – | 0.0813 | -0.117 | -0.0407 | -0.0634
CC[C@H](C)[C@H](N)C1=N[C@H](C(=O)N[C@@H](CC(C)C)C(=O)N[C@H](CCC(=O)O)C(=O)N[C@H](C(=O)N[C@H]2CCCCNC(=O)[C@H](CC(N)=O)NC(=O)[C@@H](CC(=O)O)NC(=O)[C@H](Cc3cnc[nH]3)NC(=O)[C@@H](Cc3ccccc3)NC(=O)[C@H]([C@@H](C)CC)NC(=O)[C@@H](CCCN)NC2=O)[C@@H](C)CC)CS1 [Bacitracin] + O=C1CN(/N=C/c2ccc([N+](=O)[O-])o2)C(=O)N1 [Nitrofurantoin] | – | – | – | – | -0.0709 | 0.0654 | -0.192 | -0.0336
CC[C@H]1OC(=O)[C@H](C)[C@@H](O[C@H]2C[C@@](C)(OC)[C@@H](O)[C@H](C)O2)[C@H](C)[C@@H](O[C@@H]2O[C@H](C)C[C@H](N(C)C)[C@H]2O)[C@](C)(O)C[C@@H](C)C(=O)[C@H](C)[C@@H](O)[C@]1(C)O [Erythromycin] + CN[C@H](CC(C)C)C(=O)N[C@H]1C(=O)N[C@@H](CC(N)=O)C(=O)N[C@H]2C(=O)N[C@H]3C(=O)N[C@H](C(=O)N[C@H](C(=O)O)c4cc(O)cc(O)c4-c4cc3ccc4O)[C@H](O)c3ccc(c(Cl)c3)Oc3cc2cc(c3O[C@@H]2O[C@H](CO)[C@@H](O)[C@H](O)[C@H]2O[C@H]2C[C@](C)(N)[C@H](O)[C@H](C)O2)Oc2ccc(cc2Cl)[C@H]1O [Vancomycin] | 0.0403 | -0.0375 | 0.035 | 0.0298 | – | – | – | –
CN[C@H](CC(C)C)C(=O)N[C@H]1C(=O)N[C@@H](CC(N)=O)C(=O)N[C@H]2C(=O)N[C@H]3C(=O)N[C@H](C(=O)N[C@H](C(=O)O)c4cc(O)cc(O)c4-c4cc3ccc4O)[C@H](O[C@H]3C[C@](C)(N)[C@@H](O)[C@H](C)O3)c3ccc(c(Cl)c3)Oc3cc2cc(c3O[C@@H]2O[C@H](CO)[C@@H](O)[C@H](O)[C@H]2O[C@H]2C[C@](C)(NCc3ccc(-c4ccc(Cl)cc4)cc3)[C@@H](O)[C@H](C)O2)Oc2ccc(cc2Cl)[C@H]1O [Oritavancin] + CN[C@H](CC(C)C)C(=O)N[C@H]1C(=O)N[C@@H](CC(N)=O)C(=O)N[C@H]2C(=O)N[C@H]3C(=O)N[C@H](C(=O)N[C@H](C(=O)O)c4cc(O)cc(O)c4-c4cc3ccc4O)[C@H](O)c3ccc(c(Cl)c3)Oc3cc2cc(c3O[C@@H]2O[C@H](CO)[C@@H](O)[C@H](O)[C@H]2O[C@H]2C[C@](C)(N)[C@H](O)[C@H](C)O2)Oc2ccc(cc2Cl)[C@H]1O [Vancomycin] | 0.105 | -0.0787 | 0.0254 | -0.0879 | – | – | – | –
CO[C@@]12[C@H](COC(N)=O)C3=C(C(=O)C(C)=C(N)C3=O)N1C[C@@H]1N[C@@H]12 [MitomycinC] + CC1=C\[C@@H](O)CC(=O)Cc2nc(co2)C(=O)N2CCC=C2C(=O)O[C@H](C(C)C)[C@H](C)/C=C/C(=O)NC\C=C\1 [Virginiamycin M1] | 0.0805 | -0.059 | 0.0757 | 0.0401 | – | – | – | –

Source: the supplement of paper PMC10627819
